Experimental data from patent US11213527B2, “Inhibitory effect of low molecular weight compound on cancer and fibrosis” (NATIONAL UNIVERSITY CORPORATION TOTTORI UNIVERSITY, priority 2014, dated 2022).

Assays:
[1] = tested on: HuH7 cells (a liver cancer cell line); assay: Inhibitory effect on cancer cells (WST assay); type: cell-based; conditions: 0-50 μM; 4 days (concentration-dependent) or 0, 1, 2, 4 days (time-dependent); DMSO control
Procedure: HuH7 cells (a liver cancer cell line) were cultured in a DMEM on a 10-cm cell culture dish (TPP Techno Plastic Products AG, Trasadingen, Switzerland) at 5% CO2, 37° C., and a humidity of 100%. After the cells were grown to 70 to 90% confluency, 200 μL of a Trypsin/EDTA solution was added thereto to detach the cells. The cells were centrifuged at 1000 rpm for 5 min at room temperature for recovery. Then, the cells in one dish were divided into four dishes and subcultured.
When a concentration-dependent anti-tumor effect was examined, HuH7 cells at 70 to 90% confluency were collected, and 1×10^4 cells were seeded in each well of a 96-well plate (FALCON). When a time-dependent anti-tumor effect was examined, 5×10^3 cells were seeded. Twenty-four hours after the seeding, the cells were treated with IC-2, PN3-13, or HC-1, and further incubated at 37° C. DMSO was used as a control.
The concentration of each low-molecular-weight compound was provided below. […] After that, absorbance (at a measurement wavelength of 450 nm/a control wavelength of 600 nm) was measured by a 96-well microplate reader (TECAN, Zurich, Switzerland). The absorbance of cells was calculated by subtracting the absorbance of reagent blank from the measured result, and was then converted to the viable cell count. Also, the IC50 of each low-molecular-weight compound was determined by using an equation: […]

[2] = tested on: squamous cell carcinoma cells (HSC2; HSC3 for IC-2); assay: Anti-tumor effect on squamous cell carcinoma cells (TetraColor ONE); type: cell-based; conditions: HSC2 (HSC3 also for IC-2); 48 hours
Procedure: HSC2 cells (a squamous cell carcinoma cell line) were cultured in a DMEM on a 10-cm cell culture dish (TPP Techno Plastic Products AG, Trasadingen, Switzerland) at 5% CO2, 37° C., and a humidity of 100%. The cells at 70-90% confluency were to be split and washed with PBS (−). Next, 300 μL of Trypsin/EDTA was added to 2 mL of PBS (−) and the cells were incubated with this solution at 37° C. for 5 min to detach the cells. Then, 5 mL of DMEM was used to recover the cells. The recovered cells were centrifuged at 1000 rpm for 3 min to remove a supernatant. The pelleted cells were suspended in DMEM and subcultured at 1:4.
First, 2.5×10^3 of HSC2 cells were seeded on each well of a 96-well plate (TPP). After 48 hours from the low-molecular-weight compound treatment, 100 μL of 10% TetraColor ONE (SEIKAGAKU CORPORATION, Tokyo, Japan) was added and the mixture was then incubated at 37° C. After that, absorbance (at a measurement wavelength of 450 nm/a control wavelength of 600 nm) was measured by a 96-well microplate reader (TECAN, Zurich, Switzerland). The same procedure was used to investigate an anti-tumor effect of IC-2 on a squamous cell carcinoma cell line HSC3 after culturing.

SMILES: O=C1[C@H](Cc2ccccc2)N2C(=O)CCN(C(=O)NCc3ccccc3)[C@H]2CN1Cc1cccc2ccccc12 [IC-2]
- proliferation of HuH7 cells (cell viability) [1]: significantly inhibited proliferation
- inhibitory effects on proliferation of the squamous cell carcinoma cells [2]: exerted inhibitory effects on proliferation
